Measured values published in patent US20230002359A1, “PESTICIDALLY ACTIVE FUSED BICYCLIC HETEROAROMATIC COMPOUNDS” (priority 2019, published 2023).

Legend:
Type in all cases: in vivo
[1] = tested on: Euschistus heros (Neotropical Brown Stink Bug); experiment: Example B2: Euschistus heros (neotropical brown stink bug), soybean leaves sprayed, N2 nymphs; conditions: 120 h, application rate of 200 ppm, 5 days after infestation, N2 nymphs, read-out: control in at least one of the two categories (mortality or growth inhibition)
Method: Soybean leaves on agar in 24-well microtiter plates were sprayed with aqueous test solutions prepared from 10′000 ppm DMSO stock solutions. After drying the leaves were infested with N2 nymphs. The samples were assessed for mortality and growth inhibition in comparison to untreated samples 5 days after infestation.

[2] = tested on: Chilo suppressalis (Striped Rice Stemborer); experiment: Example B3: Chilo suppressalis (striped rice stemborer), artificial diet, L2 larvae; conditions: 144 h, application rate of 200 ppm, 6 days after infestation, L2 larvae, read-out: control in at least one of the three categories (mortality, anti-feedant effect, or growth inhibition)
How it was run: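 Scoring covers mortality, anti-feedant effect and growth inhibition at 6 days post-infestation, relative to untreated diet, with activity defined as at least one category above untreated. Test solutions were aqueous, made from 10'000 ppm DMSO stocks, and applied to artificial diet before drying and infestation with L2 larvae.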

[3] = tested on: Diabrotica Balteata (Corn Root Worm); experiment: Example B1: Diabrotica balteata (corn root worm), maize sprouts sprayed, L2 larvae; conditions: 96 h, application rate of 200 ppm, 4 days after infestation, L2 larvae, read-out: control in at least one of the two categories (mortality or growth inhibition)
How it was run: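 Maize sprouts on agar were sprayed with aqueous test solutions made from 10′000 ppm DMSO stocks, dried, then infested with 6 to 10 L2 larvae per well. Mortality and growth inhibition were scored against untreated samples 4 days after infestation.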

[4] = tested on: Plutella xylostella (Diamond Back Moth); experiment: Example B4: Plutella xylostella (diamond back moth), artificial diet, eggs, 24-well; conditions: 192 h, application rate of 200 ppm, 8 days after infestation, eggs, read-out: control in at least one of the two categories (mortality or growth inhibition)
Method: 24-well microtiter plates with artificial diet were treated with aqueous test solutions prepared from 10′000 ppm DMSO stock solutions by pipetting. After drying, Plutella eggs were pipetted through a plastic stencil onto a gel blotting paper and the plate was closed with it. The samples were assessed for mortality and growth inhibition in comparison to untreated samples 8 days after infestation.

[5] = tested on: Myzus persicae (Green Peach Aphid); experiment: Example B6: Myzus persicae (green peach aphid) intrinsic activity, sucrose solution; conditions: 120 h, test rate of 12 ppm, 5 days after infestation, intrinsic activity, read-out: mortality
Method: Test compounds prepared from 10′000 ppm DMSO stock solutions were applied by pipette into 24-well microtiter plates and mixed with sucrose solution. The plates were closed with a stretched Parafilm. A plastic stencil with 24 holes was placed onto the plate and infested pea seedlings were placed directly on the Parafilm. The infested plate was closed with a gel blotting paper and another plastic stencil and then turned upside down. The samples were assessed for mortality 5 days after infestation.

[6] = tested on: Spodoptera littoralis (Egyptian Cotton Leaf Worm); experiment: Example B7: Spodoptera littoralis (Egyptian cotton leaf worm), cotton leaf discs sprayed, L1 larvae; conditions: foliar, 72 h, application rate of 200 ppm, 3 days after infestation, L1 larvae, read-out: control in at least one of the three categories (mortality, anti-feedant effect, or growth inhibition)
How it was run: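 Leaf discs on agar sprayed with aqueous dilutions of 10′000 ppm DMSO stocks, dried, then infested with five L1 larvae. Mortality, anti-feeding and growth inhibition scored versus untreated 3 days after infestation; control given when any category exceeds untreated.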

Cc1cnc(-c2ccc(C#N)cn2)c([C@H](C)N(C)c2ncnc3c(C(F)(F)F)cc(C(F)(F)F)cc23)n1 [P.175, 6-[3-[(1S)-1-[[6,8-bis(trifluoromethyl)quina-zolin-4-yl]-methyl-amino]ethyl]-5-methyl-pyraizn-2-yl]pyridine-3-carbonitrile]
≥ 80%: percent control (mortality or growth inhibition) at 200 ppm [1] | percent control (mortality, anti-feedant effect or growth inhibition) at 200 ppm [2] | percent control (mortality or growth inhibition) at 200 ppm [3] | percent control (mortality or growth inhibition) at 200 ppm [4]

CC(c1ncnn1-c1ncc(Br)cn1)N(C)c1ncnc2c(C(F)(F)F)cc(C(F)(F)F)cc12 (stereo not drawn) [P.89, N-[1-[2-(5-bromopyrimidin-2-yl)-1,2,4-triazol-3-yl]ethyl]-N-methyl-6,8-bis(trifluoromethyl)quina-zolin-4-amine]
≥ 80%: percent control (mortality or growth inhibition) at 200 ppm [1] | percent control (mortality, anti-feedant effect or growth inhibition) at 200 ppm [2] | percent control (mortality or growth inhibition) at 200 ppm [3] | percent control (mortality or growth inhibition) at 200 ppm [4]

CC(Nc1ncnc2c(Cl)cc(C(F)(F)F)cc12)c1ncnn1-c1ncccn1 (stereo not drawn) [P.43, 8-chloro-N-[1-(2-pyrimidin-2-yl-1,2,4-triazol-3-yl)ethyl]-6-(trifluoromethyl)quinazolin-4-amine]
≥ 80%: percent control (mortality or growth inhibition) at 200 ppm [1] | percent control (mortality, anti-feedant effect or growth inhibition) at 200 ppm [2] | percent control (mortality or growth inhibition) at 200 ppm [3] | percent control (mortality or growth inhibition) at 200 ppm [4]

CC(Nc1nccc2c(C(F)(F)F)cc(C(F)(F)F)cc12)c1ncnn1-c1ncccn1 (stereo not drawn) [P.83, N-[1-(2-pyrimidin-2-yl-1,2,4-triazol-3-yl)ethyl]-5,7-bis(trifluoromethyl)isoquinolin-1-amine]
≥ 80%: percent control (mortality or growth inhibition) at 200 ppm [1] | percent control (mortality, anti-feedant effect or growth inhibition) at 200 ppm [2] | percent control (mortality or growth inhibition) at 200 ppm [3] | percent control (mortality or growth inhibition) at 200 ppm [4]

CC(Nc1ncnc2c(OC(F)F)cc(Br)cc12)c1ncnn1-c1ncccn1 (stereo not drawn) [P.243, 6-bromo-8-(difluoromethoxy)-N-[1-(2-pyrimidin-2-yl-1,2,4-triazol-3-yl)ethyl]quinazolin-4-amine]
≥ 80%: mortality at 12 ppm [5] | percent control (mortality, anti-feedant effect or growth inhibition) at 200 ppm [2] | percent control (mortality or growth inhibition) at 200 ppm [3] | percent control (mortality or growth inhibition) at 200 ppm [4] | percent control (mortality, anti-feedant effect or growth inhibition) at 200 ppm [6]

CC(Nc1ncnc2c(OC(F)(F)F)cc(Br)cc12)c1nccnc1-c1ncccn1 (stereo not drawn) [P.11, 6-bromo-N-[1-(3-pyrimidin-2-ylpyrazin-2-yl)ethyl]-8-(trifluoromethoxy)quina-zolin-4-amine]
≥ 80%: mortality at 12 ppm [5] | percent control (mortality, anti-feedant effect or growth inhibition) at 200 ppm [2] | percent control (mortality or growth inhibition) at 200 ppm [3] | percent control (mortality or growth inhibition) at 200 ppm [4] | percent control (mortality, anti-feedant effect or growth inhibition) at 200 ppm [6]

CC(Nc1ncnc2c(Br)cc(OC(F)(F)F)cc12)c1ncnn1-c1ncccn1 (stereo not drawn) [P.229, 8-bromo-N-[1-(2-pyrimidin-2-yl-1,2,4-triazol-3-yl)ethyl]-6-(trifluoromethoxy)quinazo-line-4-amine]
≥ 80%: mortality at 12 ppm [5] | percent control (mortality, anti-feedant effect or growth inhibition) at 200 ppm [2] | percent control (mortality or growth inhibition) at 200 ppm [3] | percent control (mortality or growth inhibition) at 200 ppm [4] | percent control (mortality, anti-feedant effect or growth inhibition) at 200 ppm [6]

CC(Nc1ncnc2c(OC(F)F)cc(Br)cc12)c1nccnc1-c1ncccn1 (stereo not drawn) [P.32, 6-bromo-8-(difluoromethoxy)-N-[1-(3-pyrimidin-2-ylpyrazin-2-yl)ethyl]quinazolin-4-amine]
≥ 80%: mortality at 12 ppm [5] | percent control (mortality, anti-feedant effect or growth inhibition) at 200 ppm [2] | percent control (mortality or growth inhibition) at 200 ppm [3] | percent control (mortality or growth inhibition) at 200 ppm [4] | percent control (mortality, anti-feedant effect or growth inhibition) at 200 ppm [6]

CC(c1nccnc1-c1ncccn1)N(C)c1ncnc2c(C(F)(F)F)cc(Cl)cc12 (stereo not drawn) [P.132, 6-chloro-N-methyl-N-[1-(3-pyrimidin-2-ylpyrazin-2-yl)ethyl]-8-(trifluoromethyl)quinazolin-4-amine]
≥ 80%: mortality at 12 ppm [5] | percent control (mortality, anti-feedant effect or growth inhibition) at 200 ppm [2] | percent control (mortality or growth inhibition) at 200 ppm [3] | percent control (mortality or growth inhibition) at 200 ppm [4] | percent control (mortality, anti-feedant effect or growth inhibition) at 200 ppm [6]

CC(Nc1ncnc2c(C(F)(F)F)cc(Br)cc12)c1ncnn1-c1ncccn1 (stereo not drawn) [P.44, 6-bromo-N-[1-(2-pyrimidin-2-yl-1,2,4-triazol-3-yl)ethyl]-8-(trifluoromethyl)quinazolin-4-amine]
≥ 80%: mortality at 12 ppm [5] | percent control (mortality, anti-feedant effect or growth inhibition) at 200 ppm [2] | percent control (mortality or growth inhibition) at 200 ppm [3] | percent control (mortality or growth inhibition) at 200 ppm [4] | percent control (mortality, anti-feedant effect or growth inhibition) at 200 ppm [6]

CC(Nc1ncnc2c(Br)cc(Cl)cc12)c1nccnc1-c1ncccn1 (stereo not drawn) [P.183, 8-bromo-6-chloro-N-[1-(3-pyrimidin-2-ylpyrazin-2-yl)ethyl]quinazolin-4-amine]
≥ 80%: mortality at 12 ppm [5] | percent control (mortality, anti-feedant effect or growth inhibition) at 200 ppm [2] | percent control (mortality or growth inhibition) at 200 ppm [3] | percent control (mortality or growth inhibition) at 200 ppm [4] | percent control (mortality, anti-feedant effect or growth inhibition) at 200 ppm [6]

C[C@H](Nc1ncnc2c(C(F)(F)F)cc(I)cc12)c1nccnc1-c1ccc(C#N)cn1 [P.162, 6-[3-[(1S)-1-[[6-iodo-8-(trifluoromethyl)quinazolin-4-yl]amino]ethyl]pyrazin-2-yl]pyridine-3-carbonitrile]
≥ 80%: mortality at 12 ppm [5] | percent control (mortality, anti-feedant effect or growth inhibition) at 200 ppm [2] | percent control (mortality or growth inhibition) at 200 ppm [3] | percent control (mortality or growth inhibition) at 200 ppm [4] | percent control (mortality, anti-feedant effect or growth inhibition) at 200 ppm [6]

CC(Nc1ncnc2c(Br)cc(Cl)cc12)c1ncnn1-c1ncccn1 (stereo not drawn) [P.171, 8-bromo-6-chloro-N-[1-(2-pyrimidin-2-yl-1,2,4-triazol-3-yl)ethyl]quinazolin-4-amine]
≥ 80%: mortality at 12 ppm [5] | percent control (mortality, anti-feedant effect or growth inhibition) at 200 ppm [2] | percent control (mortality or growth inhibition) at 200 ppm [3] | percent control (mortality or growth inhibition) at 200 ppm [4] | percent control (mortality, anti-feedant effect or growth inhibition) at 200 ppm [6]

COc1nc(N(CC2CC2)C(C)c2ncnn2-c2ncccn2)c2cc(C(F)(F)F)cc(Cl)c2n1 (stereo not drawn) [P.36, 8-chloro-N-(cyclopropylmethyl)-2-methoxy-N-[1-(2-pyrimidin-2-yl-1,2,4-triazol-3-yl)ethyl]-6-(trifluoromethyl)quinazolin-4-amine]
≥ 80%: percent control (mortality or growth inhibition) at 200 ppm [1] | percent control (mortality or growth inhibition) at 200 ppm [3]

CC(c1ncnn1-c1ccc(C#N)cn1)N(C)c1ncnc2c(OC(F)F)cc(Br)cc12 (stereo not drawn) [P.230, 6-[5-[1-[[6-bromo-8-(difluoromethoxy)quinazo-lin-4-yl]-methyl-amino]ethyl]-1,2,4-triazol-1-yl]pyridine-3-carbonitrile]
≥ 80%: mortality at 12 ppm [5] | percent control (mortality, anti-feedant effect or growth inhibition) at 200 ppm [2] | percent control (mortality or growth inhibition) at 200 ppm [3] | percent control (mortality or growth inhibition) at 200 ppm [4] | percent control (mortality, anti-feedant effect or growth inhibition) at 200 ppm [6]

CC(Nc1ncnc2c(Br)cc(Br)cc12)c1ncnn1-c1ncccn1 (stereo not drawn) [P.29, 6,8-dibromo-N-[1-(2-pyrimidin-2-yl-1,2,4-triazol-3-yl)ethyl]quinazolin-4-amine]
≥ 80%: mortality at 12 ppm [5] | percent control (mortality, anti-feedant effect or growth inhibition) at 200 ppm [2] | percent control (mortality or growth inhibition) at 200 ppm [3] | percent control (mortality or growth inhibition) at 200 ppm [4] | percent control (mortality, anti-feedant effect or growth inhibition) at 200 ppm [6]

C[C@@H](c1ncnn1-c1ccc(C#N)cn1)N(C)c1ncnc2c(C(F)(F)F)cc(C3CC3)cc12 [P.177, 6-[5-[(1S)-1-[[6-cyclopropyl-8-(trifluoromethyl)quinazolin-4-yl]-methyl-amino]ethyl]-1,2,4-triazol-1-yl]pyridine-3-carbonitrile]
≥ 80%: mortality at 12 ppm [5] | percent control (mortality, anti-feedant effect or growth inhibition) at 200 ppm [2] | percent control (mortality or growth inhibition) at 200 ppm [3] | percent control (mortality or growth inhibition) at 200 ppm [4] | percent control (mortality, anti-feedant effect or growth inhibition) at 200 ppm [6]
